Values of other authors as cited in patent publication US11793762B2, “Composition and method for reducing joint pain associated with hemarthrosis and hemophilic arthropathy” (UPEXMED CO. LTD., priority 2018, dated 2023).
Converted amounts (≈) assume the structure as drawn.

solubility in water: 4300 µg/mL (≈ 11.3 mM)
SMILES: Cc1ccc(-c2cc(C(F)(F)F)nn2-c2ccc(S(N)(=O)=O)cc2)cc1 [Celecoxib]
